What is called IC50 is the concentration that inhibits the measured activity by half. By inhibition is commonly meant the change of the read-out against control, counted positive when it falls. The term CC50 denotes the concentration giving 50% cytotoxicity. High values mean lower toxicity to the cells, low ones greater toxicity to the cells.

SMILES strings stand for the structures. Like-named read-outs stand apart in the source and are kept apart here.

Common to all, as to assay type: cell-based
Series [1] relates to RSV A2 strain. In words: RSV A2-induced CPE in Hep2 cells. The following applies: human respiratory syncytial virus; for IC50: HEp-2, 120 h, read-out: RSV A2 CPE IC50; for inhibition at 0.1 µg/mL: at 0.1 μg/mL. Here is the method:
(§1) Biological Testing: Experimental Methods Assessment of RSV Induced CPE in Hep2 Cells
(§2) Hep2 cells were seeded (10^3/well/50 μL) in 384-well plates (Catalogue number 353962, BD Falcon, Oxford, UK) in 5% serum free-DMEM containing 2 mM L-glutamine and 1 mM sodium pyruvate one day before infection. RSV A2 strain (#0709161v, NCPV, Public Health England, Wiltshire) or RSV B Washington strain (VR-1580, ATCC, Manassas, Va. 20108) virus solutions were prepared in serum free-DMEM with 2 mM L-glutamine and 1 mM sodium pyruvate, and then added (50 μL/well) to achieve a final virus concentration of 1 MOI for RSV A and 0.1MOI for RSV B. Simultaneously test compounds (0.5 μL DMSO solution) were added to 100 μL of Hep2 cell culture with virus solution to provide a final DMSO solution of 0.5%. Plates were incubated (37° C./5% CO2) for 5 days for studies using RSV A2 strain or 6 days for those using RSV B strain, and then resazurin sodium salt (5 μL of 0.03% solution; Sigma-Aldrich, Dorset, UK) was added to each well and the plate incubated for a further 6 hr (37° C. and 5% CO2). The fluorescence of each well [545 nm (excitation)/590 nm (emission)] was determined using a multi-scanner (Clariostar: BMG, Buckinghamshire, UK). The percentage inhibition for each well was calculated and the IC50, IC75 and IC90 values were calculated from the concentration-response curve generated for each test compound.

Series [2] relates to RSV A2 F-protein expression. Kind of series: RSV A2 F-protein expression in BEAS2B bronchial epithelial cells. To be noted: human respiratory syncytial virus, BEAS-2B, 72 h, read-out: RSV A2 F-protein IC50. The method, then: Assessment of RSV F Protein Expression in BEAS2B Bronchial Epithelial Cells
An early event which follows the infection of epithelial cells by RSV is the expression of RSV F-protein on the cells' surface. BEAS2B cells (SV40-immortalised human bronchial epithelial cell line) were grown in 96 well plates. Once more than 70% confluent, cells were infected with RSV A2 (#0709161v, NCPV, Public Health England, Wiltshire) at an MOI of 0.01 in clear RPMI-1640 medium (Life technologies, Paisley, UK) with 2% FBS (Life technologies, Paisley, UK), and incubated for 3 days (37° C./5% CO2).
Supernatant was aspirated and the cells were fixed with 4% formaldehyde (100 μL in PBS solution) for 20 min, washed 3 times with washing buffer (200 μL; PBS containing 0.05% Tween-20) and incubated with blocking solution (100 μL; 5% Marvel milk in PBS) for 1 hr. Cells were then washed with washing buffer (200 μL) and incubated for 1 hr at 37° C. with anti-RSV (2F7; mouse monoclonal, lot 160290, Cat. No. ab43812, Abcam plc, Cambridge, UK) F-fusion protein antibody (50 μL; prepared at a 1:1000 dilution in 5% milk/PBS-tween). After washing, cells were incubated with an HRP-conjugated anti-mouse IgG antibody (50 μL prepared at a 1:2000 dilution in 5% milk in PBS; lot 00095437, Cat. No. P0447, Dako UK Ltd, Cambridgeshire, UK) for 1 hr. Cells were washed twice with washing buffer and once with PBS. TMB substrate (100 μL; substrate reagent pack lot 320436, Cat. No. DY999, R&D Systems, Inc. Abingdon, UK) was then added and the reaction was stopped by the addition of aq sulfuric acid (50 μL; 2N). The resultant signal was determined colourimetrically (OD: 450 nm with a reference wavelength of 655 nm) in a microplate reader (Multiskan FC®, ThermoFisher Scientific). Cells were then washed and 1% crystal violet solution (50 μL; lot SLB4576, Cat. No. HT90132-1L, Sigma-Aldrich) was applied for 30 min. After washing with PBS (200 μL) 3 times, 1% SDS (100 μL) was added to each well, and plates were shaken lightly for 1 hr prior to reading the absorbance at 595 nm. The measured OD450-655 readings were corrected for cell number by dividing the OD450-655 by the OD595 readings. The percentage inhibition for each well was calculated and the IC50 value derived from the concentration-response curve generated for each test compound.

Series [3] concerns RSV B Washington strain. In words: RSV B-induced CPE in Hep2 cells. To be noted: human respiratory syncytial virus; for IC50: HEp-2, 144 h, read-out: RSV B CPE IC50. The method, then:
as §1, §2

Series [4] in a line: Cell viability: resazurin assay in Hep2 cells. The following applies: human, 5 days incubation. Here is the method:
Cell Viability: Resazurin Assay Hep2 cells were seeded in 384-well plates (10^3/well/50 μL; BD Falcon Ref 353962) in FBS DMEM (5%, containing 2 mM L-glutamine and 1 mM sodium pyruvate) one day before experimentation. Serum-free DMEM (50 μL) was added to test wells while for control wells the media was removed and sterile water (100 μL) was added. Test compounds (0.5 μL DMSO solution) were added to give a final DMSO concentration of 0.5%. Hep2 cells were incubated with each test compound for 5 days (37° C./5% CO2 in 5% FBS) and then resazurin stock solution (5 μL; 0.03%) was added to each well and the plate incubated further for a further 6 hrs (37° C./5% CO2). The fluorescence of each well at 545 nm (excitation) and 590 nm (emission) was determined using a multi-scanner (Clariostar: BMG Labtech). The percentage loss of cell viability was calculated for each well relative to vehicle (0.5% DMSO) treatment. Where appropriate, a CC50 value was calculated from the concentration-response curve generated from the concentration-response curve for each test compound.
(In general: The colour change of resazurin is a common sign of viable cells or microbes.)

Setting [5] is: Hep2 cells, RSV A2 1 MOI, 5 days, resazurin.
The mark [6] stands for this setting: HEp-2, Hep2 cells, at 0.01 μg/mL (footnote 2), read-out: RSV A2 CPE % Inhibition.
[7] abbreviates: Hep2 cells, RSV B Washington 0.1 MOI, 6 days, resazurin.
[8] abbreviates: HEp-2, Hep2 cells, at 1 μg/mL, read-out: RSV B CPE % Inhibition.
The mark [9] stands for this setting: HEp-2, Hep2 cells, read-out: RSV A2 CPE % Inhibition.

In the case of `O=C(Nc1ccc(C(=O)N2CCc3cc(-c4nc5ccccc5[nH]4)sc3-c3ccccc32)cc1)c1cc(C2CC2)cnc1N1CC2(CCOCC2)C1` [Example 6, N-(4-(2-(1H-Benzo[d]imidazol-2-yl)-5,6-dihydro-4H-benzo[b]thieno[2,3-d]azepine-6-carbonyl)phenyl)-5-cyclopropyl-2-(7-oxa-2-azaspiro[3,5]nonan-2-yl)nicotinamide], the figures for the IC50 in series [1] (setting [5]), in series [2] and in series [3] (setting [7]) were 2.6 nM, 0.22 nM and 14.9 nM, respectively. Also, in series [1] (setting [6]), the inhibition at 0.01 µg/mL came out at 100%. In series [3] (setting [8]), the inhibition at 1 µg/mL amounted to 100%. This compound also had a CC50 at 5 days in series [4] of over 14100 nM.

Take `CCc1cccc2nc(-c3cc4c(s3)-c3ccccc3N(C(=O)c3ccc(NC(=O)c5cc(C)cnc5N5CC6(CCOCC6)C5)cc3)CC4)[nH]c12` [Example 3, N-(4-(2-(7-Ethyl-1H-benzo[d]imidazol-2-yl)-5,6-dihydro-4H-benzo[b]thieno[2,3-d]azepine-6-carbonyl)phenyl)-5-methyl-2-(7-oxa-2-azaspiro[3.5]nonan-2-yl)nicotinamide]: the IC50 in series [1] turned out to be 2.6 nM; in series [2], 0.78 nM; in series [3] it was 8.6 nM. The inhibition at 0.01 µg/mL in series [1] (HEp-2, read-out: RSV A2 CPE % Inhibition) was 100%. Besides, in series [3] (HEp-2, read-out: RSV B CPE % Inhibition), the inhibition at 1 µg/mL turned out to be 100%. Besides, in series [4], the CC50 at 5 days is over 14100 nM.

Consider `Cc1ccc2nc(-c3cc4c(s3)-c3ccccc3N(C(=O)c3ccc(NC(=O)c5cccnc5N5CC6(CCOCC6)C5)cc3)CC4)[nH]c2c1` [Example 11, N-(4-(2-(6-methyl-1H-benzo[d]imidazol-2-yl)-5,6-dihydro-4H-benzo[b]thieno[2,3-d]azepine-6-carbonyl)phenyl)-2-(7-oxa-2-azaspiro[3.5]nonan-2-yl)nicotinamide], for which the results for the IC50 in series [1] (setting [5]) and in series [3] (setting [7]) were 0.28 nM and 45.7 nM, respectively. For the same compound, in series [1] (setting [9]), the inhibition at 0.1 µg/mL came out at 100%. Moreover, the inhibition at 1 µg/mL in series [3] (setting [8]) came out at 100%. Besides, the CC50 at 5 days in series [4] was over 14700 nM.

Consider `Cc1ccc(C(=O)Nc2ccc(C(=O)N3CCc4cc(-c5nc6cccc(F)c6[nH]5)sc4-c4ccccc43)cc2)c(N2CC3(CCOCC3)C2)n1` [Example 20, N-(4-(2-(7-fluoro-1H-benzo[d]imidazol-2-yl)-5,6-dihydro-4H-benzo[b]thieno[2,3-d]azepine-6-carbonyl)phenyl)-6-methyl-2-(7-oxa-2-azaspiro[3.5]nonan-2-yl)nicotinamide], for which the IC50 in series [1] (setting [5]) turned out to be 0.094 nM; in series [3] (setting [7]), 7.6 nM. Also, in series [1] (setting [9]), the inhibition at 0.1 µg/mL was determined as 100%. Besides, the inhibition at 1 µg/mL in series [3] (setting [8]) is 100%. This compound also yielded a CC50 at 5 days in series [4] of over 14300 nM.

Take `Cc1cnc(N2CC3(CCOCC3)C2)c(C(=O)Nc2ccc(C(=O)N3CCc4cc(-c5nc6cc(F)cc(F)c6[nH]5)sc4-c4ccccc43)cc2)c1` [Example 19, N-(4-(2-(5,7-difluoro-1H-benzo[d]imidazol-2-yl)-5,6-dihydro-4H-benzo[b]thieno[2,3-d]azepine-6-carbonyl)phenyl)-5-methyl-2-(7-oxa-2-azaspiro[3.5]nonan-2-yl)nicotinamide]: the IC50 in series [1] (setting [5]) was 0.96 nM; in series [3] (setting [7]), 6.3 nM. Moreover, the inhibition at 0.01 µg/mL in series [1] (setting [6]) stood at 88%. Besides, in series [3] (setting [8]), the inhibition at 1 µg/mL was 100%. The CC50 at 5 days in series [4] is over 14000 nM.

For the compound `COc1ccc(C(=O)Nc2ccc(C(=O)N3CCc4cc(-c5nc6ccccc6[nH]5)sc4-c4ccccc43)cc2)c(N2CC3(CCOCC3)C2)n1` [Example 21, N-(4-(2-(1H-benzo[d]imidazol-2-yl)-5,6-dihydro-4H-benzo[b]thieno[2,3-d]azepine-6-carbonyl)phenyl)-6-methoxy-2-(7-oxa-2-azaspiro[3.5]nonan-2-yl)nicotinamide], the values for the 50% inhibitory concentration (IC50) in series [1] (setting [5]) and in series [3] (setting [7]) were 0.21 nM and 45.2 nM, respectively. The inhibition at 0.1 µg/mL in series [1] (setting [9]) is 100%. In addition, the inhibition at 1 µg/mL in series [3] (setting [8]) came to 100%. The CC50 at 5 days in series [4] was over 14400 nM.

As to `O=C(Nc1ccc(C(=O)N2CCc3cc(-c4nc5cccc(C(F)(F)F)c5[nH]4)sc3-c3ccccc32)cc1)c1cccnc1N1CC2(CCOCC2)C1` [Example 10, 2-(7-oxa-2-azaspiro[3.5]nonan-2-yl)-N-(4-(2-(7-(trifluoromethyl)-1H-benzo[d]imidazol-2-yl)-5,6-dihydro-4H-benzo[b]thieno[2,3-d]azepine-6-carbonyl)phenyl)nicotinamide], the IC50 is 0.14 nM in series [1] (setting [5]) and 62 nM in series [3] (setting [7]). The inhibition at 0.1 µg/mL in series [1] (setting [9]) is 100%. Besides, the inhibition at 1 µg/mL in series [3] (setting [8]) stood at 100%. This compound also yielded a CC50 at 5 days in series [4] of over 13600 nM.

Regarding `Cc1cnc(N2CC3(CCOCC3)C2)c(C(=O)Nc2ccc(C(=O)N3CCc4cc(-c5nc6cccc(C)c6[nH]5)sc4-c4ccccc43)cc2)c1` [Example 16, 5-methyl-N-(4-(2-(7-methyl-1H-benzo[d]imidazol-2-yl)-5,6-dihydro-4H-benzo[b]thieno[2,3-d]azepine-6-carbonyl)phenyl)-2-(7-oxa-2-azaspiro[3.5]nonan-2-yl)nicotinamide], the IC50 in series [1] (setting [5]) stood at 0.11 nM; in series [3] (setting [7]), 16 nM. Further, in series [1] (setting [9]), the inhibition at 0.1 µg/mL amounted to 100%. Also, the inhibition at 1 µg/mL in series [3] (setting [8]) came to 99%. The compound also returned a CC50 at 5 days in series [4] of over 14400 nM.

Turning to `O=C(Nc1ccc(C(=O)N2CCc3cc(-c4nc5cccc(Cl)c5[nH]4)sc3-c3ccccc32)cc1)c1cccnc1N1CC2(CCOCC2)C1` [Example 9, N-(4-(2-(7-chloro-1H-benzo[d]imidazol-2-yl)-5,6-dihydro-4H-benzo[b]thieno[2,3-d]azepine-6-carbonyl)phenyl)-2-(7-oxa-2-azaspiro[3.5]nonan-2-yl)nicotinamide], the values for the IC50 in series [1] (setting [5]) and in series [3] (setting [7]) were 0.67 nM and 44.1 nM, respectively. In addition, the inhibition at 0.1 µg/mL in series [1] (setting [9]) amounted to 100%. For the same compound, the inhibition at 1 µg/mL in series [3] (setting [8]) was determined as 100%. In series [4], the CC50 at 5 days was over 14300 nM.

For the origin of these results see patent US10160772B2, “5,6-dihydro-4H-benzo[b]thieno-[2,3-d]azepine derivatives” (PULMOCIDE LIMITED, priority 2014, dated 2018).
